Experimental data reported in patent publication US6462039B1, “Fungicidal benzoheterocyclyloxime” (Bayer Aktiengesellschaft, priority 1998, dated 2002).
Like-named read-outs stand apart in the source and are kept apart here.

Tests used:
[1] = system: Erysiphe graminis f.sp. hordei; test: Erysiphe test (barley)/protective; assay type: in vivo; details: protective, application rate 250 g/ha, evaluation 7 days after inoculation
Procedure: Erysiphe Test (Barley)/Protective Solvent: 25 parts by weight of N,N-dimethylacetamide Emulsifier: 0.6 part by weight of alkylaryl polyglycol ether To produce a suitable preparation of active compound 1 part by weight of active compound is mixed with the stated amounts of solvent and emulsifier and the concentrate is diluted with water to the desired concentration. To test for protective activity, young plants are sprayed with the preparation of active compound at the stated application rate. After the spray coating has dried on, the plants are dusted with spores of Erysiphe graminis f.sp. hordei. The plants are placed in a greenhouse at a temperature of approximately 20° C. and a relative atmospheric humidity of approximately 80% to promote the development of mildew pustules.

[2] = system: Fusarium nivale (var. nivale); test: Fusarium nivale (var. nivale) test (wheat)/protective; assay type: in vivo; details: protective, application rate 250 g/ha, evaluation 4 days after inoculation
Excerpt: Fusarium Nivale (Var. Nivale) Test (Wheat)/Protective Solvent: 25 parts by weight of N,N-dimethylacetamide Emulsifier: 0.6 part by weight of alkylaryl polyglycol ether […] To test for protective activity, young plants are sprayed with the preparation of active compound at the stated application rate. After the spray coating has dried on, the plants are sprayed with a conidia suspension of Fusarium nivale (var. nivale).

[3] = system: Erysiphe graminis f.sp. hordei; test: Erysiphe test (barley)/curative; assay type: in vivo; details: curative (sprayed 48 hours after inoculation), application rate 250 g/ha, evaluation 7 days after inoculation
Procedure: Erysiphe Test (Barley)/Curative Solvent: 25 parts by weight of N,N-dimethylacetamide Emulsifier: 0.6 part of weight of alkylaryl polyglycol ether To produce a suitable preparation of active compound 1 part by weight of active compound is mixed with the stated amounts of solvent and emulsifier and the concentrate is diluted with water to the desired concentration. To test for curative activity, young plants are dusted with spores of Erysiphe graminis f.sp. hordei. 48 hours after the inoculation, the plants are sprayed with the preparation of active compound at the stated application rate. The plants are placed in a greenhouse at a temperature of approximately 20° C. and a relative atmospheric humidity of approximately 80% to promote the development of mildew pustules.

Puccinia recondita = test: Puccinia test (wheat)/protective; assay type: in vivo; details: protective, application rate 250 g/ha, evaluation 10 days after inoculation
Procedure: Puccinia Test (Wheat)/Protective Solvent: 25 parts by weight of N,N-dimethylacetamide Emulsifier: 0.6 part by weight of alkylaryl polyglycol ether […] To test for protective activity, young plants are sprayed with the preparation of active compound at the stated application rate. After the spray coating has dried on, the plants are dusted with a conidia suspension of Puccinia recondita. […] The plants are then placed in a greenhouse at a temperature of approximately 20° C. and a relative atmospheric humidity of 80% to promote the development of rust pustules.

Procedure for physchem: The logP values were determined in accordance with EEC Directive 79/831 Annex V. A8 by HPLC (gradient method, acetonitrile/0.1% aqueous phosphoric acid)

Row | SMILES | chromatographic logP (physchem) | chromatographic logP | also measured
1 | CCn1nc(/C(C)=N\O)c2ccccc21 [(II-a-2)] | 2.13 |  | 
2 | CCCn1nc(/C(C)=N\O)c2ccccc21 [(II-a-3)] | 2.55 |  | 
3 | C=CCn1nc(/C(C)=N\O)c2ccccc21 [(II-a-4)] | 2.28 |  | 
4 | C/C(=N/O)c1nn(C(C)C)c2ccccc12 [(II-a-5)] | 2.72 |  | 
5 | COc1ccc2c(/C(C)=N\O)nn(C)c2c1 [(II-a-6)] | 1.76 |  | 
6 | C/C(=N/O)c1cn(C(F)F)c2ccccc12 [(II-a-7)] | 2.25 |  | 
7 | CCn1cc(C(C)=O)c2ccccc21 [(V-2)] |  | 2.35 | 
8 | CCCn1nc(C(C)=O)c2ccccc21 [(V-3)] |  | 2.81 | 
9 | C=CCn1nc(C(C)=O)c2ccccc21 [(V-4)] |  | 2.53 | 
10 | CC(=O)c1nn(C(C)C)c2ccccc12 [(V-5)] |  | 2.98 | 
11 | COc1ccc2c(C(C)=O)nn(C)c2c1 [(V-6)] | 1.99 |  | 
12 | CC(=O)c1cn(C(F)F)c2ccccc12 [(V-7)] |  | 2.22 | 
13 | CO/N=C(/C1=NOCCO1)c1ccccc1CO/N=C(\C)c1nn(C)c2ccccc12 [Example 1, O-{2-[(5,6-dihydro-[1,4,2]dioxazin-3-yl)-methoxyiminomethyl]-benzyl}1-(1-methyl-1H-indazol-3-yl)-ethanone-oxime] |  |  | efficacy [1]: 100%; efficacy [2]: 100%; efficacy [3]: 100%; efficacy (Puccinia recondita): 100%
14 | CC(=O)c1nn(C(F)F)c2ccccc12 [Example (V-1), 1-(1-difluoromethyl-1H-indazol-3-yl)-ethanone] |  | 2.67 | 
